In patent publication US7078178B2, “Methods of altering calcium transport” (priority 1999, dated 2006):

Legend:
[1] = molecular target: T1, CaT1 (Rattus norvegicus, UniProt Q9R186); test: ^45Ca^2+ uptake assay in Xenopus laevis oocytes expressing CaT1; format: cell-based; settings: for inhibition of ^45Ca^2+ uptake: cation 10 mM; for inhibition of ^45Ca^2+ uptake by di- and trivalent cations: 1 mM Ca^2+, cation 100 μM
T1 construct: ID; No. 4; expressed in transfected cells; host or cells: Xenopus laevis oocytes injected with synthetic cRNA of the cloned rat cDNA
T1 sequence (Q9R186 41-767): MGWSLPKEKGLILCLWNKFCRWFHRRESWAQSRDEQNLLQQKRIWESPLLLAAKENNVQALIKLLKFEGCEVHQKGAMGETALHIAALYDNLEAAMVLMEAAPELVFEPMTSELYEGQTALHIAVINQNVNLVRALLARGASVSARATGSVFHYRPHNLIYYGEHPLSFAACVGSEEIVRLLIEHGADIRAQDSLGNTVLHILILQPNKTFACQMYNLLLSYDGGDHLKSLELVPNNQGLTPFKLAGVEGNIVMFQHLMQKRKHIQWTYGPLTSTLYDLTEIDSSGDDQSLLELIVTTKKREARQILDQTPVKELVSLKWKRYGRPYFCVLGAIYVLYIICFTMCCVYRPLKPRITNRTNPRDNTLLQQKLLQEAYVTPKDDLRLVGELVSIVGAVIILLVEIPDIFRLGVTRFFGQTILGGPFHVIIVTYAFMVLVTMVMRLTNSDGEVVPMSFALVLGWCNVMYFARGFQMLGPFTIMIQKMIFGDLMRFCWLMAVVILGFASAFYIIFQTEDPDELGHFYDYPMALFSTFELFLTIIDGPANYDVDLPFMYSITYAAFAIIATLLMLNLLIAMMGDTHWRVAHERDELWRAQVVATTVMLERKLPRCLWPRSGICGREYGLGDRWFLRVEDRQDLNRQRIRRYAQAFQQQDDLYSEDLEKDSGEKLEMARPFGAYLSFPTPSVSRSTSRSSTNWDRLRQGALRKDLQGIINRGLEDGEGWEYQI
Description: ^45Ca^2+ uptake assay—Defolliculated Xenopus laevis oocytes were injected with either 50 nl of water or RNA. ^45Ca^2+ uptake was assayed 3 days after injection of poly(A)^+ or 1–3 days a injection of synthetic complementary RNA (cRNA). For expression cloning, oocytes were incubated in modified Barth's solution supplemented with 1 mM SrCl2 (to avoid excessive loading of oocytes with Ca^2+) as well as penicillin, streptomycin and gentamycin at 1 mg/ml. Standard uptake solution contained the following components (in mM): NaCl 100, KCl 2, MgCl2 1, CaCl2 1 (including ^45Ca^2+), Hepes 10, pH 7.5. Uptake was performed at room temperature for 30 minutes (for the expression cloning procedure, 2 hour uptakes were employed), and oocytes were washed 6 times with ice-cold uptake medium plus 20 mM MgCl2. […] Control experiments were performed with the appropriate ethanol and DMSO concentrations. Unless stated specifically, data are presented as means obtained from at least three experiments with 7 to 10 oocytes per group with standard error of the mean (S.E.M.) as the index of dispersion. Statistical significance was defined as having a P value of less than 0.05 as determined by Student's t-test.

[2] = molecular target: T1, CaT1; test: Two-microelectrode voltage clamp of oocytes expressing CaT1; format: cell-based; settings: for currents evoked by metal ions / effect on Ca^2+-evoked currents: each at 100 μM; for current as percentage of the current evoked by 5 mM Ca^2+: 5 mM cation, EGTA-injected oocytes clamped at −50 mV, n=17
Description: (§1) Two-microelectrode voltage clamp experiments were performed using standard techniques (see Chen et al., J. Biol. Chem. 274:2773–2779 (1999)) using a commercial amplifier and pCLAMP software (Version 7, Axon Instruments, Inc., Foster City, Calif.). An oocyte was introduced into the chamber containing Ca^2+-free solution and was incubated for about 3 minutes before being clamped at −50 mV and subjected to measurements. In experiments involving voltage ramps or jumps, whole-cell current and voltage were recorded by digitizing at 300 μs/sample and by Bessel filtering at 10 kHz. When recording currents at a holding potential, digitization at 0.2 s/sample and filtering at 20 Hz were employed. Voltage ramping consisted of pre-holding at −150 mV for 200 ms to eliminate capacitive currents and a subsequent linear increase from −150 to +50 mV, with a total duration of […]. Voltage jumping consisted of 150 ms voltage pulses of between −140 and +60 mV, in increments of +20 mV. Steady-state currents were obtained as the average values in the interval from 135 to 145 ms after the initiation of the voltage pulses. For experiments involving voltage-clamped ^45Ca^2+ uptake, Ca^2+-evoked currents and uptake of ^45Ca^2+ were simultaneously measured at −50 mV, using a method similar to that described in Chen et al. (cited above).

[3] = test system: CaT1 mRNA; test: Northern analysis of CaT1 mRNA in rat duodenum in vivo
Description: Northern analysis procedures were as follows. Poly(A)^+ RNA (3 μg) from rat tissues were electrophoresed in formaldehyde-agarose gels and transferred to nitrocellulose membranes. The filters were probed with ^32P-labeled full-length CaT1 cDNA, hybridized at 42° C. with a solution containing 50% formamide, 5×SSPE, 2× Denhardt's solution, 0.1% SDS and 100 μg/ml denatured salmon sperm DNA (and washed with 5×SSC/0.1% SDS at 50° C. for 2×30 minutes and 0.1×SSC at 65° C. for 3×30 minutes. Autoradiography was performed at −80° C. for 1 to 2 days.

[4] = test system: endogenous Ca^2+-activated chloride-channel currents; test: Block of the peak current in voltage-clamped oocytes by chloride channel blockers; format: cell-based, Xenopus laevis; settings: 5 mM Ca^2+; holding potential −50 mV
Description: as §1, with “above). […]” for “above).”

Structure (SMILES)	inhibition of ^45Ca^2+ uptake by di- and trivalent cations [1]	currents evoked by metal ions [2]	effect on Ca^2+-evoked currents [2]	also measured
[Mg+2] [Mg^2+]				inhibition of ^45Ca^2+ uptake [1]: no significant inhibition; blocker of CaT1 [2]: nor an effective blocker; substrate of CaT1 ([2]; up to 20 mM): neither a substrate
COc1cc(CNC(=O)CCCC/C=C/C(C)C)ccc1O [Capsaicin, capsaicin]				stimulation of CaT1-mediated ^45Ca^2+ uptake in oocytes ([1]; capsaicin up to 50 μM): did not stimulate
[Pb+2] [Pb^2+]	marked to moderate inhibition	did not evoke measurable currents	inhibited	
[Mn+2] [Mn^2+]	no significant effects	did not evoke measurable currents	no observable effects	
[Sr+2] [Sr^2+]				inhibition of ^45Ca^2+ uptake [1]: only slight inhibitory effects; current as percentage of the current evoked by 5 mM Ca^2+ [2]: 20±4%
[Ba+2] [Ba^2+]				inhibition of ^45Ca^2+ uptake [1]: only slight inhibitory effects; current as percentage of the current evoked by 5 mM Ca^2+ [2]: 12±2%
[Cd+2] [Cd^2+]	marked to moderate inhibition	did not evoke measurable currents	inhibited	
[La+3] [La^3+]	marked to moderate inhibition	did not evoke measurable currents	inhibited	
C/C=C(/C)C(=O)O[C@H]1C(C)=C2[C@H]([C@@H]1OC(=O)CCCCCCC)[C@@](C)(OC(C)=O)C[C@H](OC(=O)CCC)[C@@]1(O)[C@H]2OC(=O)[C@@]1(C)O [thapsigargin]				CaT1-mediated Ca^2+ activity relative to its baseline activity ([1]; depletion of calcium stores by thapsigargin treatment): about 20%
O=C(O)CN(CCOCCOCCN(CC(=O)O)CC(=O)O)CC(=O)O [EGTA, ethylene glycol-bis(β-aminoethylether)-N,N,N′,N′-tetraacetic acid]				increase in Ca^2+ uptake ([1]; EGTA injected into oocytes to a final concentration of 1–2 mM): three- to five-fold increase; effect on overshoot of Ca^2+-evoked inward current ([2]; EGTA injected to a final concentration of 1–2 mM, −50 mV): abolished the overshoot
C=C1/C(=C\C=C2/CCC[C@]3(C)[C@@H]([C@H](C)CCCC(C)(C)O)CC[C@@H]23)C[C@@H](O)C[C@@H]1O [1,25-dihydroxyvitamin D3]				regulation of CaT1 mRNA in rat duodenum [3]: not regulated
[Ca+2] [Ca^2+]				Km ([1]; CaT1 expressed in oocytes, read-out: apparent Michaelis constant (Km) of Ca^2+ uptake): 440 ± 70 µM; plateau value of inward current ([2]; 5 mM Ca^2+, holding potential −50 mV): 20–50 nA
O=C(O)c1ccccc1Nc1cccc(C(F)(F)F)c1 [flufenamate]				block of the peak current [4]: could be blocked
[Ni+2] [Ni^2+]		did not evoke measurable currents	inhibited	
[Gd+3] [Gd^3+]	marked to moderate inhibition	did not evoke measurable currents	inhibited	
[Fe+3] [Fe^3+]	no significant effects	did not evoke measurable currents	no observable effects	
[Na+] [Na^+]				Ca^2+ entry with extracellular Na^+ ([1]; non-clamped oocytes, Ca^2+ applied for 30 minutes): enhanced; Ca^2+-evoked currents in the presence versus absence of Na^+ ([2]; 100 mM Na^+): slightly lower
[Co+2] [Co^2+]	marked to moderate inhibition	did not evoke measurable currents	inhibited	
[Zn+2] [Zn^2+]		did not evoke measurable currents	no observable effects	
[Cu+2] [Cu^2+]	marked to moderate inhibition	did not evoke measurable currents	inhibited	
